Experimental data from patent US9163032B2, “Esters of DCPLA and methods of treatment using the same” (Blanchette Rockefeller Neurosciences Institute, priority 2011, dated 2015).
pEC50: −log10 of the molar value.

Target: T1, PKC-ε (Homo sapiens, UniProt Q02156)
T1 sequence (Q02156 1-737): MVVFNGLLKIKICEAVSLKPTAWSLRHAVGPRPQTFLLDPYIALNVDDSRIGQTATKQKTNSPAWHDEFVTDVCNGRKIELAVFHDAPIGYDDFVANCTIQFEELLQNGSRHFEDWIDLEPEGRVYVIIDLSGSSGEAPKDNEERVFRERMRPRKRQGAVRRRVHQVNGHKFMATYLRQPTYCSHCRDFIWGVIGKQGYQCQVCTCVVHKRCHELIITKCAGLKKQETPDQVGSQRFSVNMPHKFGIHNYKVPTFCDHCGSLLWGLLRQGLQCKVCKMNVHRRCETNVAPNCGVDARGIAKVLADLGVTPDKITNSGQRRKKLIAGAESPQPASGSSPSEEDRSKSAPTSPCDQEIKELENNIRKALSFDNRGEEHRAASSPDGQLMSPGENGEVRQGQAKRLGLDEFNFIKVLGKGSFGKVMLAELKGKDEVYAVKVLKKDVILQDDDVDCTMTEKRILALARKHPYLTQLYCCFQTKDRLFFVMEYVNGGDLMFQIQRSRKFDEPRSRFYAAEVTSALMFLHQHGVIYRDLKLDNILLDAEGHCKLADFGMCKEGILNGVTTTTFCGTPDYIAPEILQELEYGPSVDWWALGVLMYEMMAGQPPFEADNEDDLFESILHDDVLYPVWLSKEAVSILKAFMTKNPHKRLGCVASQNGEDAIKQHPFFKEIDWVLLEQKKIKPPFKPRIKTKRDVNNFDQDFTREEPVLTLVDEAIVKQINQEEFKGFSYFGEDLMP
Test: PKC activation assay with purified PKC-ε isozyme (32P-phosphoprotein formation)
Assay type: biochemical
Procedure: For measurement of PKC activation by DCPLA-ME, activation of recombinant PKC-α, PKC-ε, and PKC-δ was evaluated. DCPLA-ME induced activation was measured in the absence of diacylglycerol (DAG) and phosphatidylserine (PS) as described earlier. See Nelson, T. J. et al., J. Biol. Chem., 2009, 284: 34514-34521, and Kanno, T. et al., J. Cell Physiol., 2009, 221: 183-188. Individual enzymes were incubated for 15 min at 37° C. in the presence of 10 μM histones, 4.89 mM CaCl2, 10 mM MgCl2, 20 mM HEPES (pH 7.4), 0.8 mM EDTA, 4 mM EGTA, 4% glycerol, 8 μg/ml aprotinin, 8 μg/ml leupeptin, 2 mM benzamidine, and 0.5 μCi of [γ-^32P]ATP. Purified PKC-α, PKC-ε and PKC-δ were preincubated with DCPLA-ME for 5 min at room temperature. [^32P]-Phosphoprotein formation was measured by adsorption onto phosphocellulose.
To measure PKC, 10 μl of cell homogenate or purified PKC isozyme was incubated for 15 min at 37° C. in the presence of 10 μM histones, 4.89 mM CaCl2, 1.2 μg/μl phosphatidyl-L-serine, 0.18 μg/μl 1,2-dioctanoyl-sn-glycerol, 10 mM MgCl2, 20 mM HEPES (pH 7.4), 0.8 mM EDTA, 4 mM EGTA, 4% glycerol, 8 μg/ml aprotinin, 8 μg/ml leupeptin, and 2 mM benzamidine. [γ32P]ATP (0.5 μCi) was added and 32P-phosphoprotein formation was measured by adsorption onto phosphocellulose as described previously. See Nelson et al., J. Neurochemistry, 1995, 65: 2350-2357.
PKC activity of each compound was measured in the absence of diacylglycerol and phosphatidyl-L-serine and PKC-δ and PKC-ε were measured in the absence of added EGTA and CaCl2, as described by Kanno et al., J. Lipid Res., 2006, 47: 1146-1156. Low concentrations of Ca^2+ are needed because high Ca^2+ interacts with the PKC phosphatidylserine binding site and prevents activation. […] To determine their PKC isozyme specificity, the compounds were pre-incubated with purified isoforms of PKC for five minutes and the PKC activity was measured radiometrically.
The activation and PKC isozyme specificity of DCPLA-ethyl ester was measured following the procedures in Example 1(B) and (C), except that 9 ng of the purified isozyme was used and it was pre-incubated for 5 minutes at room temperature (FIG. 3). PKC-ε activation by DCPLA-tert-butyl ester and DCPLA-retinyl ester was measured in the same manner as DCPLA-ethyl ester (FIG. 3).
The EC50 values, PKC specificity, and activation for a select number of DCPLA esters was determined (see Table 1). EC50 values were determined by measuring the lowest concentration that activates by 50% of maximum activation. […] The specificity and activation of PKC by the various esters of DCPLA were determined from the measurements of activation of PKC isozymes.

Emax (% of control of PKCε at maximum): 195%
Specificity ε/α (Activation of PKC-ε ÷ activation or inhibition of PKCα at 3xEC50): 12.1
PKC isozyme specificity (PKC-ε vs PKC-α and PKC-δ): relatively specific for PKC-ε
PKC-ε activation (in a range of 0.01-10 μM): more than 50%
pEC50 (lowest concentration that activates by 50% of maximum activation): 8.52
PKC-ε activation at its peak (maximum, FIG. 1, 2, 4): up to 190 % of control
Compound: CCCCCC1CC1CC1CC1CCCCCCCC(=O)OC (stereo not drawn) [DCPLA-ME, DCPLA methyl ester]
